Measured values from patent publication US20170290820A1, “METHODS AND COMPOSITIONS FOR TREATING BETA-THALASSEMIA AND SICKLE CELL DISEASE” (Academia Sinica, priority 2013, published 2017).
Where “and” joins values, the source holds several entries; their conditions need not be identical. Equal values may be shown once. Where a name gives a salt, the structure may show the parent alone.

Key:
[1] = stability observed during biological evaluation; type: physicochemical; conditions: deaminated or converted into C6-hydroxy derivative
Excerpt: To optimize the biological activity and reduce the cytotoxicity of SS-2394 by structural modification, the core structure of naphthalimide (I) was modified by alternating the carbonyl function of benzo[de]isoquinoline-1,3(2H)-dione; reducing the carbonyl function to hydroxyl derivatives (II), which can be further converted into dehydroxylated derivatives III and IV (Scheme 1). During biological evaluation of SS-2394, it was observed that the C6-amino function in SS-2394 was unstable and can be deaminated or converted into the corresponding C6-hydroxy derivatives. Therefore, various substituent R to the C6 of benzo[de]isoquinolin ring were introduced. The substituent R can be H, NH2, NHCOCH3, NHR′, NR′2; wherein R′ can be a C1 to C5 alkyl group. The new compounds bear a N,N-dimethylaminoethyl hydrophilic side chain, which can form acid salts with various inorganic acids or organic acids. Thus, the compounds are water soluble compounds and are suitable for biological application.

[2] = solubility in DMSO and H2O; type: physicochemical; conditions: for water-solubility (in words): comparison
δ globin = experiment: absolute quantitative RT-PCR, proportion of δ globin mRNA; type: cell-based; conditions: primary human erythroid cells, at IC50, 3 days; mock 3.3%
Procedure: (§1) After 3 days of drug-treatment, the total RNA was extracted by RNA Spin mini kit (Ge-Healthcare) and reverse-transcription was performed by using superscript II (Invitrogen) followed the manufactors instruction. Quantitative PCR was performed on LightCycler with using STBR green master mix followed the manufactors instruction (Roche). The absolute quantitative RT-PCR was calculated by the standard curve with supplying a known copy number of plasmids. The relative quantitative RT-PCR was normalized to the expression levels of the β-actin and compared to the mock control.
(§2) To evaluate the specificity of S51021, SS-2394, HU, and NaB in mediating globin genes activation, the amounts of individual P3-liked globin mRNAs were measured by absolute quantitative RT-PCR.
(§3) The primary human erythroid cells were treated with HU (145.9 μM), NaB (221.6 μM), S51021 (21.8 μM) or SS2394 (2.3 μM) for 3 days, and the expression levels of each globin mRNA were estimated by absolute quantitative RT-PCR analysis. The proportions of individual 3-like globin chains among the total 3-like globin mRNA are shown. Data are presented as the mean±SEM, N=3.

ε globin = experiment: absolute quantitative RT-PCR, proportion of ε globin mRNA; type: cell-based; conditions: primary human erythroid cells, at IC50, 3 days; mock 0.0%
Procedure: as §1, §2, §3

β globin = experiment: absolute quantitative RT-PCR, proportion of β globin mRNA; type: cell-based; conditions: primary human erythroid cells, at IC50, 3 days; mock 88.8%; listed as SS-2394, hydrochloride
Procedure: as §1, §2, §3

γ globin gene = γ globin gene induction by relative quantitative RT-PCR; type: cell-based, human
Procedure: as §1
To search for new agents, which are capable of inducing the expression of γ globin, a series of naphthalimide derivatives with various substituent(s) on the naphthalene ring and the heterocyclic N-atom (A1-A14, B1-B4, C1-C5, D1, and E1-E3, FIG. 2) were synthesized. These derivatives were subjected to evaluating the γ globin induction abilities in differentiated peripheral blood mononuclear cells (PBMCs). The PBMCs isolated from the peripheral blood of donors were expanded and differentiated for a total of 14 days in a two-phase liquid culture. The resulted primary erythoid cells were then treated with different dosages of naphthalimide derivatives individually for another 3 days. The expression levels of the endogenous γ globin gene were estimated by relative quantitative RT-PCR and the proliferation rates of these cells were examined by AlamarBlue cell viability assay. […]; 2-4.5-folds induction of the γ globin gene expression in the compounds-treated cells (FIG. 3).

[3] = tested on: primary human erythroid cells; experiment: AlamarBlue cell viability / proliferation assay; conditions: Table 1a; concentration reducing proliferation rate of primary human erythroid cells by 50%, 3 days

- stability of the C6-amino function [1]: unstable
- water-solubility (in words) ([2]; hydrochloride): greatly improved water-solubility
- solubility ([2]; water, H2O, read-out: solubility H2O): > 100 mM
- γ globin induction (IC50) (γ globin gene; Table 3, γ globin mRNA induction fold at the compound's IC50, 3 days, hydrochloride): 4.0 fold
- EC (μM) induction of HU IC50 (2.3 fold) (γ globin gene; concentration inducing γ globin gene expression 2.3-fold, primary human erythroid cells): 0.8 µM
SMILES: CN(C)CCN1C(=O)c2cccc3c(N)ccc(c23)C1=O [Compound E2, N-(2-dimethylamino-ethyl)-4-amino-1,8-naphthalimide hydrochloride]
- water-solubility (in words) ([2]; listed as SS-2394, hydrochloride): higher water-solubility than that of the parental compound S51021
- δ globin proportion of total β-like globin mRNA (δ globin): 5.5 ± 0.4%
- ε globin proportion of total β-like globin mRNA (ε globin): 0.5 ± 0.1%
- β globin proportion of total β-like globin mRNA (β globin): 82.3% and 82.3 ± 1.1%
- IC50 [3]: 2.3 µM
